Measured values reported in article PMC11220795 (Molecular Pharmaceutics, 2024).

Assay: Drug solubility in medium-chain triglycerides (MCT, Miglyol 812 N); SORESOS 96-well assay, miniaturized shake-flask or literature
Settings: decadic logarithm of molar solubility in MCTs (Miglyol 812 N), 24 h at room temperature; no literature source given
Experimental: The excipient complies with the quality specifications of the European Pharmacopoeia. The solvents used for the ultra-performance liquid chromatography (UPLC) quantification were of UPLC grade.
(b) employing a miniaturized version of the shake-flask method in 2 mL glass vials,[33] or (c) collecting data from the literature.[12],[34] Each of the employed assays involved residual solid-state screenings by powder X-ray diffraction to identify potential solid-state changes during solubility screenings.

log10 S [M] | SMILES
-0.41 | CCC(CC)CC1(C(=O)Nc2ccccc2SC(=O)C(C)C)CCCCC1 [RO4607381]
-4.19 | COc1ccc(C)cc1S(=O)(=O)N1CCCc2ccc(C(=O)Nc3ccc(C(=O)O)c(F)c3)cc21 [RO5033672]
-3.23 | Cn1ncc(C(=O)N2CCOCC2)c1C(=O)Nc1ccn2nc(-c3ccccc3)nc2c1 [RO5545965]
-1.07 | CN1C(=O)N(c2ccc(C#Cc3ccccc3)cn2)[C@@H]2CCC[C@H]21 [RO6805600]
-2.99 | Cc1sc(NC(=O)C2=C(C(=O)O)CCCC2)c(-c2nc(C3CC3)no2)c1C [RO6858805]
-2.24 | CC(C)(C(=O)NCC(F)(F)C(F)(F)F)C(=O)N[C@@H]1C(=O)Nc2ccccc2-c2ccccc21 [RO4929097]
-1.31 | COC(=O)N1CC[C@@H]2[C@@H]1CCC[C@@]2(O)C#Cc1cccc(C)c1 [RO6805580]
-4.07 | O=C(CCc1ccc(OC(F)(F)F)cc1)N1C[C@@H]2CN(C(=O)c3ccc4[nH]nnc4c3)C[C@@H]2C1 [RO6888975]
-3.39 | COc1ccc(N2CCOCC2)c2sc(NC(=O)N(C)C3CCC(O)CC3)nc12 (stereo not drawn) [RO4403289]
-2.41 | COc1ccc(N2CCOCC2)c2sc(NC(=O)c3ccc(F)cc3)nc12 [RO0716689]
-1.78 | COc1cc(C(F)(F)F)cc(SC)c1C(=O)N[C@@]1(c2ccccc2)C[C@@H](OC)CN(C)C1 [RO5469299]
-2.24 | Cc1ccc(-c2noc(C)c2COc2ccc(C(=O)NC3CCOCC3)nn2)cn1 [RO7017773]
-1.55 | CC(C)(C)c1ccc(CN(CCc2cccc(C(F)(F)F)c2)C(=O)c2c(F)c(Cl)cc3cc[nH]c23)cc1 [RO4920902]
-3.11 | CN(C)C(=O)Cc1c(C(=O)O)n(Cc2cccc3ccccc23)c2ccc(F)cc12 [RO5066852]
-3.50 | O=C(OCc1ccc(OC(F)(F)F)cc1)N1C[C@@H]2CN(C(=O)c3ccc4n[nH]nc4c3)C[C@@H]2C1 [RO6897779]
-1.40 | CN(C(=O)c1ncc(C#Cc2cccc(F)c2)cn1)C(C)(C)C [RO6807794]
-1.71 | COc1ccc(-c2ccccc2)c2sc(NC(=O)c3ccc(F)cc3)nc12 [RO0691911]

Further lines, the molecule ahead of its results:

SMILES | log10 S [M]
OC(Cn1cncn1)(Cn1cncn1)c1ccc(F)cc1F [fluconazole] | -2.19
FC(F)c1ncn2c1Cn1ncnc1-c1cc(Br)ccc1-2 [RO4938581] | -2.98
CCn1c(=O)c2c(nc(/C=C/c3ccc(OC)c(OC)c3)n2C)n(CC)c1=O [istradefylline] | -2.46
CCOC(=O)N1CCC(=C2c3ccc(Cl)cc3CCc3cccnc32)CC1 [loratadine] | -1.21
CC(C)(C)NC(=O)[C@@H]1C[C@@H]2CCCC[C@@H]2CN1C[C@@H](O)[C@H](Cc1ccccc1)NC(=O)[C@H](CC(N)=O)NC(=O)c1ccc2ccccc2n1 [saquinavir] | -3.11
CC1(C)CCC(C)(C)c2cc(Cn3cccn3)c(/C=C/c3ccc(C(=O)O)cc3)cc21 [palovarotene] | -3.47
CNC(=O)c1ccc(N2C(=S)N(c3ccc(C#N)c(C(F)(F)F)c3)C(=O)C2(C)C)cc1F [enzalutamide] | -2.36
O=C1CCc2cc(OCCCCc3nnnn3C3CCCCC3)ccc2N1 [cilostazol] | -3.68
CC(C)(C)c1ccc(C(O)CCCN2CCC(C(O)(c3ccccc3)c3ccccc3)CC2)cc1 (stereo not drawn) [terfenadine] | -2.05
C/C(O)=C(\C#N)C(=O)Nc1ccc(C(F)(F)F)cc1 [teriflunomide] | -2.30
CN1CC(=O)N2[C@H](c3ccc4c(c3)OCO4)c3[nH]c4ccccc4c3C[C@@H]2C1=O [tadalafil] | -2.99
COc1cc2ncnc(Nc3ccc(F)c(Cl)c3)c2cc1OCCCN1CCOCC1 [gefitinib] | -3.09
OC(c1cc(C(F)(F)F)nc2c(C(F)(F)F)cccc12)C1CCCCN1 (stereo not drawn) [mefloquine] | -1.74
